# From PubChem BioAssay (NCI)
#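 Dose response: 5 concentrations. Exposure: 48 h. Format: 96-well plates. Endpoint: linear interpolation; highest concentration if not reached. GI50: concentration for 50% inhibition of growth. At the TGI there is no net growth.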
# Legend:
# Experiment in all cases: DTP human tumour cell line panel, 48 h
# [1] = tested on: HT29 colon
# [2] = tested on: CCRF-CEM leukemia
# [3] = tested on: IGROV1 ovarian
# [4] = tested on: U251 CNS
# [5] = tested on: OVCAR-4 ovarian
# [6] = tested on: MCF7 breast
# [7] = tested on: OVCAR-8 ovarian
# [8] = tested on: 786-0 renal
# [9] = tested on: A549 NSCLC
# [10] = tested on: MDA-MB-435
# [11] = tested on: SK-MEL-2 melanoma
# [12] = tested on: HCC-2998 colon
# [13] = tested on: MOLT-4 leukemia
# [14] = tested on: UACC-257 melanoma
# [15] = tested on: UACC-62 melanoma
# [16] = tested on: SNB-19 CNS
# [17] = tested on: SW-620 colon
# [18] = tested on: HOP-92 NSCLC
# [19] = tested on: NCI-H522 lung
# [20] = tested on: K-562 leukemia
# [21] = tested on: UO-31 renal
# [22] = tested on: DU-145 prostate
# [23] = tested on: CAKI-1 renal
# [24] = tested on: SK-OV-3 ovarian
# [25] = tested on: T-47D breast
# [26] = tested on: RPMI-8226 leukemia
# [27] = tested on: HCT-116 colon
# [28] = tested on: PC-3 prostate
# [29] = tested on: ACHN renal
# [30] = tested on: SK-MEL-28 melanoma
smiles,measurement,setting,value
COc1cnc2c(c1)C(=O)c1c-2n(CCCNCCO)c(=O)c2cc(F)ccc12,TGI,[1],1.38 µM
same,GI50,[2],0.206 µM
same,TGI,[2],0.966 µM
same,GI50,[3],0.51 µM
same,TGI,[3],2.68 µM
same,GI50,[4],0.268 µM
same,TGI,[4],3.24 µM
same,GI50,[5],1.71 µM
same,TGI,[5],8.65 µM
same,GI50,[6],0.101 µM
same,TGI,[6],1.7 µM
same,GI50,[7],0.555 µM
same,TGI,[7],2.79 µM
same,GI50,[8],0.277 µM
same,TGI,[8],0.962 µM
same,GI50,[9],0.198 µM
same,TGI,[9],1.1 µM
same,GI50,[10],1.27 µM
same,TGI,[10],4.52 µM
same,GI50,[11],2.36 µM
same,TGI,[11],4.36 µM
same,GI50,[12],0.549 µM
same,TGI,[12],1.7 µM
same,GI50,[13],0.174 µM
same,TGI,[13],0.757 µM
same,GI50,[14],2.13 µM
same,TGI,[14],7.97 µM
same,GI50,[15],0.496 µM
same,TGI,[15],1.83 µM
same,GI50,[16],0.666 µM
same,TGI,[16],8.06 µM
same,GI50,[17],0.367 µM
same,TGI,[17],2.61 µM
same,GI50,[18],1.66 µM
same,TGI,[18],7.26 µM
same,GI50,[19],0.42 µM
same,TGI,[19],1.83 µM
same,GI50,[20],0.28 µM
same,TGI,[20],6.05 µM
same,GI50,[21],0.195 µM
same,TGI,[21],1.17 µM
same,GI50,[22],0.287 µM
same,TGI,[22],3.59 µM
same,GI50,[23],0.22 µM
same,TGI,[23],1.68 µM
same,GI50,[24],0.668 µM
same,TGI,[24],2.45 µM
same,GI50,[25],0.269 µM
same,TGI,[25],1.55 µM
same,GI50,[26],0.25 µM
same,TGI,[26],1.88 µM
same,GI50,[27],0.183 µM
same,TGI,[27],0.657 µM
same,GI50,[28],0.667 µM
same,TGI,[28],10.5 µM
same,GI50,[29],0.175 µM
same,TGI,[29],0.465 µM
same,GI50,[30],1.92 µM
same,TGI,[30],5.69 µM
